Measured values reported in ChEMBL document CHEMBL3124786, “The discovery of reverse tricyclic pyridone JAK2 inhibitors. Part 2: lead optimization” (Bioorg Med Chem Lett, 2014).

Experiments:
[1] = Plasma clearance in rat; format: ADME, organism-based
[2] = molecular target: T1, Tyrosine-protein kinase JAK2 (Homo sapiens, UniProt O60674); experiment: Inhibition of recombinant Jak2 (unknown origin) using biotinylated synthetic peptide substrate by homogeneous time resolved fluorescence assay
[3] = molecular target: T1, Tyrosine-protein kinase JAK2; experiment: Inhibition of Jak2 (unknown origin) assessed as inhibition of STAT5 phosphorylation by cell-based assay
Mus musculus = experiment: Inhibition of Jak2 (unknown origin) in po dosed […] mouse assessed as inhibition of STAT5 phosphorylation measured after 1 to 8 hrs of dosing by PK/PD assay; format: functional, organism-based
Rattus norvegicus = organism: Rattus norvegicus; experiment: Unbound clearance in rat; format: ADME, organism-based; conditions: in vivo
[4] = Plasma protein binding in rat; format: ADME, cell-free; conditions: read-out: PPB (converted)
[5] = Volume of distribution in rat; format: ADME, organism-based; conditions: in vivo
[6] = Half life in rat; format: ADME, organism-based; conditions: in vivo
[7] = Mus musculus, C56bl/6, read-out: IC50

T1 sequence (O60674 whole entry): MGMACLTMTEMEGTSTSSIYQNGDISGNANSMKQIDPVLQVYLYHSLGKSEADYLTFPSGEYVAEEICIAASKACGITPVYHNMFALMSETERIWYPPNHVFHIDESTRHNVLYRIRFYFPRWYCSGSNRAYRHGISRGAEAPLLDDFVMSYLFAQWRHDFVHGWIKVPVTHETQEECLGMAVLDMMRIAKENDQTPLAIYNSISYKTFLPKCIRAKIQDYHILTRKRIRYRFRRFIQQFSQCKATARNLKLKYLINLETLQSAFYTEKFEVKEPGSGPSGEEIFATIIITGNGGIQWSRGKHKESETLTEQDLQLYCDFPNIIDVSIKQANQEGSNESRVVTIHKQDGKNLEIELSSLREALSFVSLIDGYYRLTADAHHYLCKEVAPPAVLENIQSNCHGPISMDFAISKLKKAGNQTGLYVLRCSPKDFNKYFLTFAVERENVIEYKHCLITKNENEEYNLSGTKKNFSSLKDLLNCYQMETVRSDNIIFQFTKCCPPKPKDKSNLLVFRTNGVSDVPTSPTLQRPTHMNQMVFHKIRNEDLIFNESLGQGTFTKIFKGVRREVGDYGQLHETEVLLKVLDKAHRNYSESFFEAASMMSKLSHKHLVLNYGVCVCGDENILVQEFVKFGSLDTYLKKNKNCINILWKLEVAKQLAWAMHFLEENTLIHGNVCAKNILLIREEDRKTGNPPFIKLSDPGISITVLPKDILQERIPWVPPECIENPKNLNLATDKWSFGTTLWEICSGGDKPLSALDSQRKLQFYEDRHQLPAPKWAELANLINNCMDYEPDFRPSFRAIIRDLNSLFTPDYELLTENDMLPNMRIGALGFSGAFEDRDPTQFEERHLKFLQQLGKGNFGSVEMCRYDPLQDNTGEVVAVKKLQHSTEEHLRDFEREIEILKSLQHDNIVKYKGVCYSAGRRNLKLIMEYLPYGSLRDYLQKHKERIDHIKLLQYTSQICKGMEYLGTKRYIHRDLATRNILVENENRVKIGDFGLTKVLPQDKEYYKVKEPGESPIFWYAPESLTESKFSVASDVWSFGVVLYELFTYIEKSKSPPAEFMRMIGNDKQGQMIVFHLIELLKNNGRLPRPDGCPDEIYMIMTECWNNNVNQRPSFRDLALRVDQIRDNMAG

clearance [1] [mL/min/kg]	IC50 [2] [nM]	IC50 [3] [nM]	IC50 (Mus musculus; [7]) [nM]	CL (Rattus norvegicus) [mL/min/kg]	fraction unbound [4]	IC50 (Mus musculus)	Vd [5] [L/kg]	half-life [6] [min]	Compound
68	–	–	–	–	–	–	–	–	CC(C)[C@@H](Nc1nc2cc[nH]c(=O)c2c2cnccc12)C(F)(F)F
–	200	–	–	–	–	–	–	–	O=c1[nH]ccc2c(NC3CC3)nc3ccc(F)cc3c12
–	100	–	–	–	–	–	–	–	O=c1[nH]ccc2nc(NC3CC3)c3ccc(F)cc3c12
–	7	90	–	–	–	–	–	–	O=c1[nH]ccc2c(Nc3c(F)cc(F)cc3F)nc3ccncc3c12
–	0.8	14	–	–	–	–	–	–	O=c1[nH]ccc2c(Nc3c(Cl)cc(F)cc3Cl)nc3ccncc3c12
–	2	24	–	–	–	–	–	–	O=c1[nH]ccc2c(Nc3c(Cl)cncc3Cl)nc3ccncc3c12
–	3	140	–	–	–	–	–	–	O=c1[nH]ccc2c(Nc3c(Cl)cc(OC(F)(F)F)cc3Cl)nc3ccncc3c12
–	1	49	–	–	–	–	–	–	O=c1[nH]ccc2c(Nc3c(Cl)cc(C(F)(F)F)cc3Cl)nc3ccncc3c12
–	9	90	–	–	–	–	–	–	O=c1[nH]ccc2c(Nc3c(F)cccc3C(F)(F)F)nc3ccncc3c12
54	0.6	12	400	1125	0.048	–	–	–	CC(O)c1cc(Cl)c(Nc2nc3ccncc3c3c(=O)[nH]ccc23)c(Cl)c1 (stereo not drawn)
29	0.5	18	1200	1115	0.026	–	–	–	CC(C)(O)c1cc(Cl)c(Nc2nc3ccncc3c3c(=O)[nH]ccc23)c(Cl)c1
10	1	37	–	10000	0.001	Not Active	–	–	O=c1[nH]ccc2c(Nc3c(Cl)cc(-c4ccn[nH]4)cc3Cl)nc3ccncc3c12
16	0.2	26	1300	571	0.028	–	–	–	O=c1[nH]ccc2c(Nc3c(Cl)cc(C(O)C(F)F)cc3Cl)nc3ccncc3c12 (stereo not drawn)
50	0.15	113	–	–	–	Not Active	–	–	NS(=O)(=O)c1cc(Cl)c(Nc2nc3ccncc3c3c(=O)[nH]ccc23)c(Cl)c1
–	10	170	–	–	–	–	–	–	CC(C)[C@H](Nc1nc2ccncc2c2c(=O)[nH]ccc12)C(F)(F)F
41	0.9	15	2300	875	0.048	–	2.6	48	O=c1[nH]ccc2c(Nc3c(F)cc(F)cc3Cl)nc3ccncc3c12
